# Tested on: NSCLC tumor cells (NCl-H460)
# Assay: cell competition experiment: uptake of 3H-glutamic acid into tumor cells
# Type: cell-based
# Conditions: NCI-H460 cells, 10 min incubation with 1 µci 3H-glutamic acid in PBS-buffer, test compound 1 mM (excess)
# Protocol: Figure 1: Examination of biological activity of (2S)-2-Amino-7-fluoro-4-phosphonoheptanoic acid in a cell competition experiment. (NCI-H460 cells, 10 min incubation with 1 µci 3H-glutamic acid in PBS-buffer, concentration of (2S)-2-Amino-7-fluoro-4-phosphonoheptanoic acid 1 mM).
# The ability of compounds from the present invention to compete with uptake of glutamic acid into tumor cells was examined. Therefore, NSCLC tumor cells (NCl-H460) were co-incubated with 3H-labeled glutamic acid and (2S)-2-Amino-7-fluoro-4-phosphonoheptanoic acid. This compound was used in excess (1 mM) to the tracer 3H-glutamic acid.
smiles,measurement,value
N[C@@H](CC(CCCF)P(=O)(O)O)C(=O)O (stereo partly drawn) [(2S)-2-Amino-7-fluoro-4-phosphonoheptanoic acid],uptake of 3H-glutamic acid,could be decreased
